Reference: ChEMBL document CHEMBL1143303 (Bioorg Med Chem Lett, 2009)
Calls of active or inactive are those of the source. No cut-off for these calls is given here.

Key:
[1] = test system: MV4-11; assay: Decrease in global DNA methylation in human MV411 cells at 3 uM after 72 hrs by LC-MS/MS analysis relative to control; format: functional; set-up: scale not given: the % may be the effect or the level left
[2] = molecular target: DNA (cytosine-5)-methyltransferase 1 (Homo sapiens) (UniProt P26358); assay: Inhibition of C1226 catalytic site of DNMT1
[3] = molecular target: Orphan methyltransferase M.SssI (Spiroplasma monobiae) (UniProt P15840); assay: (§1) Inhibition of Spiroplasma sp. MQ-1 M.SssI
[4] = test system: MV4-11; assay: Decrease in global DNA methylation in human MV411 cells at 30 uM after 72 hrs by LC-MS/MS analysis relative to control; format: functional; set-up: scale not given: the % may be the effect or the level left
[5] = test system: MV4-11; assay: Induction of global DNA hypomethylation in human MV411 cells at 1 uM after 72 hrs by LC-MS/MS analysis relative to control; format: functional, cell-based
[6] = molecular target: Orphan methyltransferase M.SssI (Spiroplasma monobiae, UniProt P15840); assay: as §1
[7] = molecular target: DNA (cytosine-5)-methyltransferase 1 (Homo sapiens) (UniProt P26358); assay: Inhibition of C1226 catalytic site of DNMT1 in presence of S-adenosyl methionine
[8] = molecular target: Orphan methyltransferase M.SssI (Spiroplasma monobiae) (UniProt P15840); assay: Inhibition of Spiroplasma sp. MQ-1 M.SssI up to 100 uM

Sequence of DNA (cytosine-5)-methyltransferase 1 (Homo sapiens) (P26358 whole entry): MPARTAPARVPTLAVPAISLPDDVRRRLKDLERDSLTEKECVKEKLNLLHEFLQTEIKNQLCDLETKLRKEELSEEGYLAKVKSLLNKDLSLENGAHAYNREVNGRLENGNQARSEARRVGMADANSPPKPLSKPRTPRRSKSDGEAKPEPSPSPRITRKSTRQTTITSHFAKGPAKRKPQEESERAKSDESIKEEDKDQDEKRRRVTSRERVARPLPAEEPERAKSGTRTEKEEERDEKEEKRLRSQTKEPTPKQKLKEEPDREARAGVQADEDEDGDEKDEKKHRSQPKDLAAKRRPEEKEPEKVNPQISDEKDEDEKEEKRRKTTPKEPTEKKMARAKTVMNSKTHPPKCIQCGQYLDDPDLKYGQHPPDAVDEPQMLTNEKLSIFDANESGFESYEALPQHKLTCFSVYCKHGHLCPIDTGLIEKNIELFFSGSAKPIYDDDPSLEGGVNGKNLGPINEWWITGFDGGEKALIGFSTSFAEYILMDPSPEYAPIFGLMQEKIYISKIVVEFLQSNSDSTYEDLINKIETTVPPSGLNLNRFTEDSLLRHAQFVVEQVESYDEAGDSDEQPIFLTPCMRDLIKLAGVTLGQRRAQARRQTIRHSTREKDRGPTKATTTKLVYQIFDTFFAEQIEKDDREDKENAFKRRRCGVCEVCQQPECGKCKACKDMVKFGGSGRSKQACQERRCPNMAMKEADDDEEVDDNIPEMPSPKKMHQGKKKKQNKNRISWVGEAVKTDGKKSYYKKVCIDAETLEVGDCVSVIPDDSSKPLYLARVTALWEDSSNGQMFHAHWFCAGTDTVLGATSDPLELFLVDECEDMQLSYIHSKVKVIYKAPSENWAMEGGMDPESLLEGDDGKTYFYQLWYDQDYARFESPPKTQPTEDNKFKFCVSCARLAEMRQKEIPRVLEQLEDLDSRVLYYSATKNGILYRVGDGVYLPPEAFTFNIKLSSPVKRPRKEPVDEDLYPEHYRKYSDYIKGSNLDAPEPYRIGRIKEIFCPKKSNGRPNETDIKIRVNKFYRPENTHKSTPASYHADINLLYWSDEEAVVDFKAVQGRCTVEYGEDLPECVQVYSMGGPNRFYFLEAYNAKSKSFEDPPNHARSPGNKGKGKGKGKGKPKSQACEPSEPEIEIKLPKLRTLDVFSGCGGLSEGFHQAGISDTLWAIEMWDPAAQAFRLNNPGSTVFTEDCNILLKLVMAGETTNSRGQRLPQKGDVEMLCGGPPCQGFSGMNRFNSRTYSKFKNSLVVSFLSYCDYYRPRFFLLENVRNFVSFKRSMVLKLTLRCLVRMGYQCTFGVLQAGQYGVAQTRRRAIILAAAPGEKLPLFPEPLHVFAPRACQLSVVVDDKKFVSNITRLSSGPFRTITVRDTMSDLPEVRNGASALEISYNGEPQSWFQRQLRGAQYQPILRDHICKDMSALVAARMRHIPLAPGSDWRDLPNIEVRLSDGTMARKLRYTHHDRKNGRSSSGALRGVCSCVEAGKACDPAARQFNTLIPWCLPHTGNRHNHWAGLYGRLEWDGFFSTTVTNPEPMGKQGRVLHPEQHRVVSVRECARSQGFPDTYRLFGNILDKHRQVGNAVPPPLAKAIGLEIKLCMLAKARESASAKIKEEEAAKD
Sequence of Orphan methyltransferase M.SssI (Spiroplasma monobiae) (P15840 whole entry): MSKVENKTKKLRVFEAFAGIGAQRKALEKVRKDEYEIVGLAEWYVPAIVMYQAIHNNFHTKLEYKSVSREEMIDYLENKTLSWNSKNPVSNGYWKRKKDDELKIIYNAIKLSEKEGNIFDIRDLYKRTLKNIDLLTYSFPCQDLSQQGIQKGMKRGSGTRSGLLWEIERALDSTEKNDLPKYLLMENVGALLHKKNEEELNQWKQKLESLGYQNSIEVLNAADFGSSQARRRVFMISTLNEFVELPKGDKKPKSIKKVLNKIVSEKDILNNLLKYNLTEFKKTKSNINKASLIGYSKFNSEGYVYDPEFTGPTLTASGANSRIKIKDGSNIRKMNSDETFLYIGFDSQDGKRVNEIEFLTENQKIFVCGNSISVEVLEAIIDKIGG
Sequence of Orphan methyltransferase M.SssI (P15840 whole entry): as above

Row | Structure (SMILES) | Activity [2] | Activity [3] | IC50 [6] [nM] | Activity [7] | Activity [8] | Activity [1] [%] | Activity [4] [%] | Activity [5]
1 | COc1cc(CCC(=O)CC(O)CCc2ccc(O)c(OC)c2)ccc1O (centres undefined) | Active |  |  | Active | inactive |  |  | 
2 | COc1cc(CCC(=O)CC(=O)CCc2ccc(O)c(OC)c2)ccc1O | Active |  |  | Active |  |  |  | 
3 | O=C(/C=C/c1ccc(O)cc1)CC(=O)/C=C/c1ccc(O)cc1 [BISDEMETHOXYCURCUMIN] | Active |  | 30 |  |  |  |  | 

Now from value to compound, other results behind:

Row | Activity [2] | Activity [3] | IC50 [6] [nM] | Activity [7] | Activity [8] | Structure (SMILES) | Activity [1] [%] | Activity [4] [%] | Activity [5]
4 | Active | Dose-dependent effect |  |  |  | COc1cc(/C=C/C(=O)CC(=O)/C=C/c2ccc(O)c(OC)c2)ccc1O [CURCUMIN] | 15 | 15 | inactive
5 | Active |  | 30 |  |  | COc1cc(/C=C/C(O)=C/C(=O)/C=C/c2ccc(O)cc2)ccc1O [DEMETHOXYCURCUMIN] |  |  | 
